Target: T1, Death-associated protein kinase 1 (DAPK1) (Homo sapiens, UniProt P53355)
Assay: 10-dose kinase assay (Reaction Biology HotSpot)
Format: biochemical
Conditions: not given

T1 sequence (P53355 whole entry): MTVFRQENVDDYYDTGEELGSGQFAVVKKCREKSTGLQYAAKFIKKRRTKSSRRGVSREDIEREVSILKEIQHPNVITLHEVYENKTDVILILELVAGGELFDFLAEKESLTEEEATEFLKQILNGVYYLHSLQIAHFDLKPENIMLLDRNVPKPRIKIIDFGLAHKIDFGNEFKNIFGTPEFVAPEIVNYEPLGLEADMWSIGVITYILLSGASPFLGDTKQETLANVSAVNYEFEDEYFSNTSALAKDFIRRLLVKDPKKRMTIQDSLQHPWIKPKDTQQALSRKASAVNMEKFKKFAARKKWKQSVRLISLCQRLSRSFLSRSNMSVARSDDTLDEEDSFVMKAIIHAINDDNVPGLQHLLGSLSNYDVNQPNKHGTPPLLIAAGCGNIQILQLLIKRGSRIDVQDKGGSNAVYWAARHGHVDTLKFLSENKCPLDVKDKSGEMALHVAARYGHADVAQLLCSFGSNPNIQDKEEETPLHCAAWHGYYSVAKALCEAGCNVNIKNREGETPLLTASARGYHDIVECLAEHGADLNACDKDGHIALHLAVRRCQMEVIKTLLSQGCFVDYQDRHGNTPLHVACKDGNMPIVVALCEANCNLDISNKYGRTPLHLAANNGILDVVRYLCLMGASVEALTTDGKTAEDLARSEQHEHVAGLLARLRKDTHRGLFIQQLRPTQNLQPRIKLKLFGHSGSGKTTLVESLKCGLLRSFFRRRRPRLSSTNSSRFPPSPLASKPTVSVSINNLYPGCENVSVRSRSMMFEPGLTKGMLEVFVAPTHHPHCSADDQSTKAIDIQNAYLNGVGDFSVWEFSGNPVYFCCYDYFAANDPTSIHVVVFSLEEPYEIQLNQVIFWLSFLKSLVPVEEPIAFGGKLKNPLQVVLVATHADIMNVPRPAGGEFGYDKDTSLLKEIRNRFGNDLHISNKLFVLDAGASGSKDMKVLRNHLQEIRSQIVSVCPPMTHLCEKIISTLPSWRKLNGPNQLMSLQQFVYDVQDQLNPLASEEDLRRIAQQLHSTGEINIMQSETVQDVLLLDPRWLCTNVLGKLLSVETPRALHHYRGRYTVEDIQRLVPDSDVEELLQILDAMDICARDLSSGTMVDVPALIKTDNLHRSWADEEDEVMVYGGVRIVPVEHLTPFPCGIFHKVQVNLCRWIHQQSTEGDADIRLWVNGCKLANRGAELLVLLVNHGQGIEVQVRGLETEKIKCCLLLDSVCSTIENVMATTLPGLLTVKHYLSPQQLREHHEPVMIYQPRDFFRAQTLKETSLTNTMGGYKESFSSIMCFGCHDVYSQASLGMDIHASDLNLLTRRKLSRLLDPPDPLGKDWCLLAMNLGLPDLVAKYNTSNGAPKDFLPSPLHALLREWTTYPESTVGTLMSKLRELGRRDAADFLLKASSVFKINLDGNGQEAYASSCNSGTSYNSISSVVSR

`O=C(Nc1ccc(Oc2ccc(F)cc2)c(Cl)c1)c1ccccn1` [4h, N-(3-chloro-4-(4-fluorophenoxy)phenyl) picolinamide] was tested. Which IC50 did it give?
Its IC50 is 6.81 µM.

With `O=C(Nc1ccc(Oc2ccc(F)cc2)c(Cl)c1)c1cccnc1` [4j, N-(3-chloro-4-(4-fluorophenoxy)phenyl) nicotinamide] as the compound, how does the IC50 read?
The IC50 was 1.7 µM.

For `O=C(Nc1ccc(Oc2ccc(F)cc2)c(Cl)c1)c1ccncc1` [4k, N-(3-chloro-4-(4-fluorophenoxy)phenyl) isonicotinamide], which IC50 is on record?
The IC50 was 7.26 µM.

Which IC50 does the source give for `O=C(Nc1ccc(Oc2cccc(Cl)c2)c(Cl)c1)c1ccncc1` [4q, N-(3-chloro-4-(3-chlorophenoxy)phenyl) isonicotinamide] here?
Its IC50 is 1.09 µM.

Target: T1, Death-associated protein kinase 1 (DAPK1)
Assay: single-dose kinase assay, % inhibition at […]
Format: biochemical
Conditions: read-out: % Inhibition against DAPK1 ^a

Which inhibition at 10 µM does the source give for `O=C(Nc1ccc(Oc2cccc(Cl)c2)c(Cl)c1)c1ccccn1` [4m, N-(3-chloro-4-(3-chlorophenoxy)phenyl) picolinamide] here?
Its inhibition at 10 µM is 61.7%.

For `O=C(Nc1ccc(Oc2cccc(Cl)c2)c(Cl)c1)c1cccnn1` [4n, N-(3-chloro-4-(3-chlorophenoxy)phenyl) pyridazine-3-carboxamide], which inhibition at 10 µM is on record?
Its inhibition at 10 µM is 61.5%.

With `O=C(Nc1ccc(Oc2cccc(Cl)c2)c(Cl)c1)c1cccnc1` [4p, N-(3-chloro-4-(3-chlorophenoxy)phenyl) nicotinamide] as the compound, how does the inhibition at 10 µM read?
The inhibition at 10 µM was 61.5%.

`O=C(Nc1ccc(Oc2cccc(Cl)c2)c(Cl)c1)c1ccnnc1` [4r, N-(3-chloro-4-(3-chlorophenoxy)phenyl) pyridazine-4-carboxamide] was tested. Which inhibition at 10 µM did it give?
Its inhibition at 10 µM is 60%.

Source: paper PMC9504985, “Identification of Novel Aryl Carboxamide Derivatives as Death-Associated Protein Kinase 1 (DAPK1) Inhibitors with Anti-Proliferative Activities: Design, Synthesis, In Vitro, and In Silico Biological Studies” (Pharmaceuticals, 2022)
